{"source": "patent US12077503B2", "about": "“Substituted cyclic amides and their use as herbicides” (FMC CORPORATION, priority 2015, dated 2024)", "format_in_all_cases": "in vivo", "key": {"Kochia (Kochia scoparia) [1]": {"test_system": "Kochia (Kochia scoparia)", "test": "Test A preemergence", "settings": "Bassia scoparia, pre-emergence, 240 h, 0 to 100 scale where 0 is no effect and 100 is complete control, read-out: Kochia plant response rating", "in_short": "(§1)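 Each rating is a visual injury score from 0 to 100 given about 10 d after treatment, judged against untreated controls kept alongside in the greenhouse. In loam soil–sand blend, seeds got a preemergence directed soil spray, while postemergence plants were 2 to 10 cm tall at spraying.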"}, "[2]": {"test_system": "barnyardgrass (Echinochloa crus-galli)", "test": "Test A preemergence", "settings": "Echinochloa crus-galli, pre-emergence, 240 h, 0 to 100 scale where 0 is no effect and 100 is complete control, read-out: Barnyardgrass plant response rating", "in_short": "as §1"}, "[3]": {"test_system": "giant foxtail (Setaria faberii)", "test": "Test A preemergence", "settings": "Setaria faberi, pre-emergence, 240 h, 0 to 100 scale where 0 is no effect and 100 is complete control, read-out: Foxtail, Giant plant response rating", "in_short": "as §1"}, "[4]": {"test_system": "pigweed (Amaranthus retroflexus)", "test": "Test A preemergence", "settings": "Amaranthus retroflexus, pre-emergence, 240 h, 0 to 100 scale where 0 is no effect and 100 is complete control, read-out: Pigweed plant response rating"}, "[5]": {"test_system": "ragweed (common ragweed, Ambrosia elatior)", "test": "Test A preemergence", "settings": "Ambrosia artemisiifolia, pre-emergence, 240 h, 0 to 100 scale where 0 is no effect and 100 is complete control, read-out: Ragweed plant response rating", "in_short": "as §1"}, "[6]": {"test_system": "ryegrass, Italian (Italian ryegrass, Lolium multiflorum)", "test": "Test A preemergence", "settings": "Lolium multiflorum, pre-emergence, 240 h, 0 to 100 scale where 0 is no effect and 100 is complete control, read-out: Ryegrass, Italian plant response rating", "in_short": "as §1"}, "[7]": {"test_system": "Galium (catchweed bedstraw, Galium aparine)", "test": "Test A postemergence", "settings": "Galium, post-emergence, 240 h, read-out: Galium plant response rating (0 to 100 scale)", "in_short": "as §1"}, "Kochia (Kochia scoparia) [8]": {"test_system": "Kochia (Kochia scoparia)", "test": "Test A postemergence", "settings": "Bassia scoparia, post-emergence, 240 h, read-out: Kochia plant response rating (0 to 100 scale)", "in_short": "as §1"}, "[9]": {"test_system": "barnyardgrass (Echinochloa crus-galli)", "test": "Test A postemergence", "settings": "Echinochloa crus-galli, post-emergence, 240 h, read-out: Barnyardgrass plant response rating (0 to 100 scale)", "in_short": "as §1"}, "[10]": {"test_system": "blackgrass (Alopecurus myosuroides)", "test": "Test A postemergence", "settings": "Alopecurus myosuroides, post-emergence, 240 h, read-out: Blackgrass plant response rating (0 to 100 scale)", "in_short": "as §1"}, "corn (Zea mays)": {"test_system": "corn (Zea mays)", "test": "Test A postemergence", "settings": "Zea mays, post-emergence, 240 h, read-out: Corn plant response rating (0 to 100 scale)", "in_short": "as §1"}, "[11]": {"test_system": "giant foxtail (Setaria faberii)", "test": "Test A postemergence", "settings": "Setaria faberi, post-emergence, 240 h, read-out: Foxtail, Giant plant response rating (0 to 100 scale)", "in_short": "as §1"}, "[12]": {"test_system": "pigweed (Amaranthus retroflexus)", "test": "Test A postemergence", "settings": "Amaranthus retroflexus, post-emergence, 240 h, read-out: Pigweed plant response rating (0 to 100 scale)", "in_short": "as §1"}, "[13]": {"test_system": "ragweed (common ragweed, Ambrosia elatior)", "test": "Test A postemergence", "settings": "Ambrosia artemisiifolia, post-emergence, 240 h, read-out: Ragweed plant response rating (0 to 100 scale)", "in_short": "as §1"}, "[14]": {"test_system": "ryegrass, Italian (Italian ryegrass, Lolium multiflorum)", "test": "Test A postemergence", "settings": "Lolium multiflorum, post-emergence, 240 h, read-out: Ryegrass, Italian plant response rating (0 to 100 scale)", "in_short": "as §1"}, "[15]": {"test_system": "wheat (Triticum aestivum)", "test": "Test A postemergence", "settings": "Triticum aestivum, post-emergence, 240 h, Postemergence, 31 g ai/ha; 0 is no effect, 100 is complete control; read-out: Wheat plant response rating (0 to 100 scale)", "in_short": "as §1"}, "[16]": {"test_system": "barnyardgrass (Echinochloa crus-galli)", "test": "Test B flooded paddy test", "settings": "Echinochloa crus-galli, 250 g ai/ha, Flood; 0 to 100 scale where 0 is no effect and 100 is complete control; read-out: Barnyardgrass plant response rating", "in_short": "(§2)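 Percent control, visually estimated after 13–15 d in the greenhouse on a 0–100 basis, compares treated pots with untreated ones; compound was put into paddy water 3 cm above the soil when plants had two leaves.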"}, "[17]": {"test_system": "ducksalad (Heteranthera limosa)", "test": "Test B flooded paddy test", "settings": "Heteranthera limosa, 250 g ai/ha, Flood; 0 to 100 scale where 0 is no effect and 100 is complete control; read-out: Ducksalad plant response rating", "in_short": "as §2"}, "rice (Oryra sativa)": {"test_system": "rice (Oryra sativa)", "test": "Test B flooded paddy test", "settings": "Oryza sativa, 250 g ai/ha, Flood; 0 to 100 scale where 0 is no effect and 100 is complete control; read-out: Rice plant response rating", "in_short": "as §2"}, "[18]": {"test_system": "sedge, umbrella (small-flower umbrella sedge, Cyperus difformis)", "test": "Test B flooded paddy test", "settings": "Cyperus difformis, 250 g ai/ha, Flood; 0 to 100 scale where 0 is no effect and 100 is complete control; read-out: Sedge, Umbrella plant response rating", "in_short": "as §2"}, "[19]": {"settings": "125 g ai/ha, preemergence, visual injury rating, approximately 10 d"}, "[20]": {"settings": "125 g ai/ha, postemergence, visual injury vs untreated controls after approx. 10 d, 0 = no effect, 100 = complete control"}, "[21]": {"settings": "Postemergence, 31 g ai/ha, 0 is no effect, 100 is complete control"}}, "data": [{"compound": "Cc1c(F)cccc1NC(=O)[C@H]1C(=O)N(C)C[C@@H]1c1ccc(C(F)F)cc1", "note": "[Compound 1261]", "values": [{"measurement": "pest or weed control at 31 g/ha", "setting": "Kochia (Kochia scoparia) [1]; 31 g ai/ha, Preemergence", "result": 70, "unit": "%"}, {"measurement": "pest or weed control at 125 g/ha", "setting": "Kochia (Kochia scoparia) [1]; [19]", "result": 80, "unit": "%"}, {"measurement": "pest or weed control at 31 g/ha", "setting": "[2]; 31 g ai/ha, Preemergence", "result": 90, "unit": "%"}, {"measurement": "pest or weed control at 125 g/ha", "setting": "[2]; [19]", "result": 90, "unit": "%"}, {"measurement": "pest or weed control at 31 g/ha", "setting": "[3]; 31 g ai/ha, Preemergence", "result": 90, "unit": "%"}, {"measurement": "pest or weed control at 125 g/ha", "setting": "[3]; [19]", "result": 90, "unit": "%"}, {"measurement": "pest or weed control at 31 g/ha", "setting": "[4]; 31 g ai/ha, Preemergence", "result": 0, "unit": "%"}, {"measurement": "pest or weed control at 125 g/ha", "setting": "[4]; [19]", "result": 20, "unit": "%"}, {"measurement": "pest or weed control at 31 g/ha", "setting": "[5]; 31 g ai/ha, Preemergence", "result": 50, "unit": "%"}, {"measurement": "pest or weed control at 125 g/ha", "setting": "[5]; [19]", "result": 50, "unit": "%"}, {"measurement": "pest or weed control at 31 g/ha", "setting": "[6]; 31 g ai/ha, Preemergence", "result": 20, "unit": "%"}, {"measurement": "pest or weed control at 125 g/ha", "setting": "[6]; [19]", "result": 30, "unit": "%"}, {"measurement": "pest or weed control at 125 g/ha", "setting": "[7]; [20]", "result": 60, "unit": "%"}, {"measurement": "pest or weed control at 31 g/ha", "setting": "[7]; [21]", "result": 50, "unit": "%"}, {"measurement": "pest or weed control at 125 g/ha", "setting": "Kochia (Kochia scoparia) [8]; [20]", "result": 50, "unit": "%"}, {"measurement": "pest or weed control at 31 g/ha", "setting": "Kochia (Kochia scoparia) [8]; [21]", "result": 20, "unit": "%"}, {"measurement": "pest or weed control at 125 g/ha", "setting": "[9]; [20]", "result": 90, "unit": "%"}, {"measurement": "pest or weed control at 31 g/ha", "setting": "[9]; [21]", "result": 90, "unit": "%"}, {"measurement": "pest or weed control at 125 g/ha", "setting": "[10]; [20]", "result": 60, "unit": "%"}, {"measurement": "pest or weed control at 31 g/ha", "setting": "[10]; [21]", "result": 40, "unit": "%"}, {"measurement": "plant injury at 125 g/ha", "setting": "corn (Zea mays); [20]", "result": 80, "unit": "%"}, {"measurement": "plant injury at 31 g/ha", "setting": "corn (Zea mays); [21]", "result": 50, "unit": "%"}, {"measurement": "pest or weed control at 125 g/ha", "setting": "[11]; [20]", "result": 90, "unit": "%"}, {"measurement": "pest or weed control at 31 g/ha", "setting": "[11]; [21]", "result": 90, "unit": "%"}, {"measurement": "pest or weed control at 125 g/ha", "setting": "[12]; [20]", "result": 30, "unit": "%"}, {"measurement": "pest or weed control at 31 g/ha", "setting": "[12]; [21]", "result": 0, "unit": "%"}, {"measurement": "pest or weed control at 125 g/ha", "setting": "[13]; [20]", "result": 30, "unit": "%"}, {"measurement": "pest or weed control at 31 g/ha", "setting": "[13]; [21]", "result": 0, "unit": "%"}, {"measurement": "pest or weed control at 125 g/ha", "setting": "[14]; [20]", "result": 50, "unit": "%"}, {"measurement": "pest or weed control at 31 g/ha", "setting": "[14]; [21]", "result": 20, "unit": "%"}, {"measurement": "plant injury at 31 g/ha", "setting": "[15]", "result": 20, "unit": "%"}, {"measurement": "pest or weed control at 250 g/ha", "setting": "[16]", "result": 75, "unit": "%"}, {"measurement": "pest or weed control at 250 g/ha", "setting": "[17]", "result": 100, "unit": "%"}, {"measurement": "pest or weed control at 250 g/ha", "setting": "rice (Oryra sativa)", "result": 50, "unit": "%"}, {"measurement": "pest or weed control at 250 g/ha", "setting": "[18]", "result": 0, "unit": "%"}]}]}
